Test results published in patent US5114920A, “BU-3292T antibiotics” (priority 1988, dated 1992).
In brackets after ≈: the same amount, converted by molar mass. Starred links: 1 amine or outer side, 2 acyl side, 3 side chain; linkers in the order of their positions; H or OH if unused. Positions of bridges follow the written chain, without caps; N, C: chain ends. Non-standard residues stand in square brackets, D forms with d. Residues, ends and D or L forms follow the SMILES beside them. Chains are numbered I, II in the order given. Actinocin(9to1) = Cc1c2oc3c(C)ccc(C(=O)[*:1])c3nc-2c(C(=O)[*:2])c(N)c1=O; X2 = CC1CCC(C(=O)[*:2])N1[*:1]; NMeV = CN[CH](C(=O)O)C(C)C; Sar = CNCC(=O)O

What was measured:
[1] = tested on: Candida albicans IAM 4888; assay: Antimicrobial activity, serial two-fold agar dilution method; format: cell-based; conditions: Sabouraud dextrose agar
Method: (§1) The antimicrobial activity of BU-3292T A and B was determined against aerobic and anaerobic bacteria and fungi by a serial two-fold agar dilution method. BU-3292T A and B are active against aerobic gram-positive bacteria, and weakly active against anaerobic gram-negative bacteria and fungi.

[2] = tested on: Streptococcus pyogenes A20201; assay: as above; format: cell-based; conditions: Nutrient agar
Method: as §1

[3] = tested on: Bacteroides fragilis A22693; assay: as above; format: cell-based; conditions: GAM agar
Method: as §1

[4] = tested on: Aspergillus fumigatus IAM 2530; assay: as above; format: cell-based; conditions: Sabouraud dextrose agar
Method: as §1

[5] = tested on: Clostridium difficile A21675; assay: as above; format: cell-based; conditions: GAM agar
Method: as §1

[6] = tested on: Klebsiella pneumoniae D11; assay: as above; format: cell-based; conditions: Nutrient agar
Method: as §1

[7] = tested on: Trichophyton mentagrophytes D155; assay: as above; format: cell-based; conditions: Sabouraud dextrose agar
Method: as §1

[8] = tested on: Staphylococcus epidermidis D153; assay: as above; format: cell-based; conditions: Nutrient agar
Method: as §1

Proteus vulgalis A9436 = assay: as above; format: cell-based; conditions: Nutrient agar
Method: as §1

[9] = tested on: Propionibacterium acnes A21933; assay: as above; format: cell-based; conditions: GAM agar
Method: as §1

Mucor spinosus IFO 5317 = assay: as above; format: cell-based
Method: as §1

[10] = tested on: Streptococcus faecalis A9612; assay: as above; format: cell-based; conditions: Nutrient agar
Method: as §1

[11] = tested on: Staphylococcus aureus smith; assay: as above; format: cell-based; conditions: Nutrient agar
Method: as §1

Micrococcus luteus 1001 = assay: as above; format: cell-based; conditions: Nutrient agar
Method: as §1

[12] = tested on: Staphylococcus aureus 209P; assay: as above; format: cell-based; conditions: Nutrient agar
Method: as §1

[13] = tested on: Fusarium moniliforme A2284; assay: as above; format: cell-based; conditions: Sabouraud dextrose agar
Method: as §1

[14] = tested on: Bacillus subtilis PCI-219; assay: as above; format: cell-based; conditions: Nutrient agar
Method: as §1

[15] = tested on: Cryptococcus neoformans IAM 4519; assay: as above; format: cell-based; conditions: Sabouraud dextrose agar
Method: as §1

[16] = tested on: Pseudomonas aeruginosa A9930; assay: as above; format: cell-based; conditions: Nutrient agar
Method: as §1

[17] = tested on: Propionibacterium anaerobius A21905; assay: as above; format: cell-based; conditions: GAM agar
Method: as §1

Proteus mirabilis A9554 = assay: as above; format: cell-based; conditions: Nutrient agar
Method: as §1

Escherichia coli NIHJ = assay: as above; format: cell-based; conditions: Nutrient agar
Method: as §1

[18] = tested on: lymphocytic leukemia P388; assay: Antitumor activity against P388 leukemia (ip); format: in vivo, mice; conditions: for MST (Median survival time) / T/C: QD × 3, ip
Method: (§2) BU-3292T components A and B were tested for in vitro cytotoxicity against murine and human tumor cells and for in vivo antitumor activity in mice. Actinomycin D was used as a reference compound in both in vitro and in vivo experiments. B16-F10 (murine melanoma) and Moser (human colorectal carcinoma) cells were grown to the logarithmic phase in enriched Eagle minimum essential medium (MEM) supplemented with fetal calf serum (FCS, 10%) and kanamycin (60 mcg/ml), harvested and inoculated into wells of a 96-well microtiter plate with test materials at the concentrations of 3.0×10^4 and 6.0×10^4 cells/ml, respectively. They were incubated at 37° C. in humidified atmosphere of 5% CO2 and 95% air for 72 hours. The cytotoxic activity was determined colorimetrically at 540 nm after staining viable cells with neutral red. […] Inhibitory effects of BU-3292T component A on macromolecule (DNA, RNA and protein) synthesis were determined in vitro. Cultured L1210 murine leukemia cells (5×10^5 cells/ml) were incubated with test materials at 37° C. for 15 minutes and then further incubated for 60 minutes after the addition of labelled precursor, ^3 H-thymidine, ^14 C-uridine or ^3 H-leucine, into the cultured mixtures. After washing with chilled 5% trichloroacetic acid solution, the radioactivity incorporated into the acid-insoluble fraction of the tumor cells was determined in a liquid scintillation counter. […] In vivo antitumor activities of BU-3292T components A and B were tested in tumor-bearing female CDF mice. After the intraperitoneal implantation of diluted ascitic fluid with 1.0 ×10^6 lymphocytic leukemia P388 cells into the mice, test compounds were administered intraperitoneally once a day on days 1, 2 and 3 (QD×3).

[19] = tested on: B16-F10 (murine melanoma) cells; assay: In vitro cytotoxicity, neutral red staining; format: cell-based
Method: as §2

[20] = tested on: Moser (human colorectal carcinoma) cells; assay: In vitro cytotoxicity, neutral red staining; format: cell-based; conditions: 72 hours
Method: as §2

[21] = Body weight change in P388-bearing mice; conditions: QD × 3, ip
Method: as §2

[22] = tested on: aerobic gram-positive bacteria; assay: Antimicrobial activity, agar dilution, summary in words; format: cell-based; conditions: summary of Table 6
Method: as §1

gram-negative bacteria = assay: as above; format: cell-based; conditions: summary of Table 6
Method: as §1

[23] = tested on: anaerobic gram-negative bacteria and fungi; assay: as above; format: cell-based; conditions: summary of Table 6
Method: as §1

Solubility = format: physicochemical
Source text: BU-3292T A is isolated as a white amorphous powder, while BU-3292T B is an orange-red powder. […] The compounds give positive responses to iodine and Rydone-Smith reagents, but negative responses to Sakaguchi, ferric chloride, ninhydrin and anthrone reagents. […] The IR spectra of BU-3292T A and B are illustrated in FIGS. 1 and 2, respectively.

[24] = tested on: Clostridium perfringens A9635; format: cell-based; conditions: GAM agar

## Cc1c2oc3c(C)ccc(C(=O)NC4C(=O)NC(C(C)C)C(=O)N5C(C)CCC5C(=O)N(C)CC(=O)N(C)C(C(C)C)C(=O)OC4C)c3nc-2c(C(=O)NC2C(=O)NC(C(C)C)C(=O)N3C(C)CCC3C(=O)N(C)CC(=O)N(C)C(C(C)C)C(=O)OC2C)c(N)c1=O (centres unmarked) [BU-3292T B] (I: TV[X2][Sar][NMeV] / II: TV[X2][Sar][NMeV]; ester I:1-I:C, II:1-II:C; linker I:N-II:N via Actinocin(9to1); configuration not given here)
[1]
  MIC: > 100 µg/mL
[2]
  MIC: 0.8 µg/mL (≈ 0.623 µM)
[3]
  MIC: > 100 µg/mL
[4]
  MIC: > 100 µg/mL
[5]
  MIC: > 100 µg/mL
[6]
  MIC: 100 µg/mL (≈ 77.9 µM)
[7]
  MIC: > 100 µg/mL
[8]
  MIC: 1.6 µg/mL (≈ 1.25 µM)
Proteus vulgalis A9436
  MIC: > 100 µg/mL
[9]
  MIC: 12.5 µg/mL (≈ 9.74 µM)
Mucor spinosus IFO 5317; Mucor spinosus IFO 5317, Sabouraud dextrose agar
  MIC: 25 µg/mL (≈ 19.5 µM)
Mucor spinosus IFO 5317; in vitro against Mucor spinosus IF05317
  MIC: 25 µg/mL (≈ 19.5 µM)
[10]
  MIC: 0.8 µg/mL (≈ 0.623 µM)
[11]
  MIC: 1.6 µg/mL (≈ 1.25 µM)
Micrococcus luteus 1001
  MIC: 0.4 µg/mL (≈ 0.312 µM)
[12]
  MIC: 1.6 µg/mL (≈ 1.25 µM)
[13]
  MIC: 50 µg/mL (≈ 39 µM)
[14]
  MIC: 0.8 µg/mL (≈ 0.623 µM)
[15]
  MIC: > 100 µg/mL
[16]
  MIC: > 100 µg/mL
[17]
  MIC: 6.3 µg/mL (≈ 4.91 µM)
Proteus mirabilis A9554
  MIC: > 100 µg/mL
Escherichia coli NIHJ
  MIC: > 100 µg/mL
[18]; 0.003 mg/kg/day
  MST (Median survival time): 11.0 days
  T/C: 110%
[18]; 0.01 mg/kg/day
  MST (Median survival time): 12.0 days
  T/C: 120%
[18]; 0.03 mg/kg/day
  MST (Median survival time): 14.0 days
  T/C: 140%
[18]; 0.1 mg/kg/day
  MST (Median survival time): 16.0 days
  T/C: 160%
[18]; 0.3 mg/kg/day
  MST (Median survival time): 8.0 days
  T/C: 80%
[18]; 1 mg/kg/day
  MST (Median survival time): Tox
  T/C: Tox
[18]; anti-P388 leukemic activity, QD×3, ip
  maximum T/C value: 160%
[19]; B16-F10, 72 hours
  IC50: < 0.00016 µg/mL
[19]; cytotoxic activity, B16-F10 versus Moser
  times stronger against B16-F10 cells than against Moser cells: ~400 times
[20]
  IC50: 0.06 µg/mL (≈ 0.0467 µM)
[21]; 0.003 mg/kg/day
  Body weight change on day 4: +1.0 g
[21]; 0.01 mg/kg/day
  Body weight change on day 4: +1.0 g
[21]; 0.03 mg/kg/day
  Body weight change on day 4: +1.0 g
[21]; 0.1 mg/kg/day
  Body weight change on day 4: -1.0 g
[21]; 0.3 mg/kg/day
  Body weight change on day 4: -3.3 g
[22]
  activity against aerobic gram-positive bacteria: active
gram-negative bacteria
  activity against gram-negative bacteria: inactive
[23]
  activity against anaerobic gram-negative bacteria and fungi: weakly active
Solubility; dimethyl sulfoxide, dimethylformamide, methanol, ethyl acetate, chloroform
  solubility in dimethyl sulfoxide, dimethylformamide, methanol, ethyl acetate and chloroform: readily soluble
Solubility; water and other organic solvents
  solubility in water and other organic solvents: insoluble
[24]
  MIC: 25 µg/mL (≈ 19.5 µM)
